# US12612412B2, “Antiviral heterocyclic compounds” (Enanta Pharmaceuticals, Inc., priority 2021, dated 2026)
# System: genotype A, "Long" strain RSV
# Experiment: RSV-A assay (CPE protection in Hep-2 cells, ATPlite readout)
# Format: cell-based, Human respiratory syncytial virus (HRSV)
# Settings: human respiratory syncytial virus, RSV-A Long strain, MOI 0.1, CPE protection, read-out: Human RSV-A (“Long”) EC50
# In short: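 Hep-2 cells (8,000/well) were treated with 2-fold serial compound dilutions in duplicate and infected with RSV at MOI 0.1. After 5 days, protection from cytopathic effect was measured as cell viability by ATPlite luminescence, and EC50 values were derived.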
row,EC50,SMILES
1,> 200 nM,COc1cc(C(=O)NC[C@](O)(c2cc3c(c(-c4ccc(F)cc4)n2)OC[C@]3(C)C(N)=O)C(F)(F)F)cn2nc(C3CC3)cc12 [Example 879]
2,> 200 nM,COc1cc(C(=O)NC[C@](O)(c2cc3c(c(-c4ccc(F)c(Cl)c4)n2)OC[C@]3(C)C(N)=O)C(F)(F)F)cn2nc(C3CC3)cc12 [Example 880]
3,< 200 nM,COc1cc(C(=O)NC[C@](O)(c2cc3c(c(-c4ccc(F)cc4)n2)OC[C@]3(C)C(N)=O)C(F)(F)F)cn2nc(N)cc12 [Example 881]
4,> 200 nM,COc1cc(C(=O)NCC(O)(c2cc3c(c(Br)n2)OC[C@]3(C)C(N)=O)C(F)(F)F)cc2cn(C3CC3)nc12 (stereo partly drawn) [Example 890]
5,> 200 nM,COc1cc(C(=O)NC[C@@](O)(c2cc3c(c(-c4ccc(C5CC5)cc4)n2)OC[C@]3(C)C(N)=O)C(F)(F)F)cc2cn(C3CC3)nc12 [Example 892]

# Same assay, conditions: human respiratory syncytial virus, genotype A “Long” strain RSV, MOI 0.1, CPE protection, read-out: Human RSV-A (“Long”)
row,EC50,SMILES
1,> 200 nM,COc1cccc2oc(C(=O)NC[C@](O)(c3cc4c(c(-c5ccc(F)cc5)n3)OC[C@]4(C)C(N)=O)C(F)(F)F)cc12 [Example 430]
2,> 200 nM,Cc1ncc(C(=O)NC[C@](O)(c2cc3c(c(-c4ccc(F)cc4)n2)OC[C@]3(C)C(N)=O)C(F)(F)F)s1 [Example 431]
3,> 200 nM,Cc1cc(C(=O)NC[C@](O)(c2cc3c(c(-c4ccc(F)cc4)n2)OC[C@]3(C)C(N)=O)C(F)(F)F)c2ccccc2n1 [Example 432]
4,> 200 nM,C[C@]1(C(N)=O)COc2c1cc([C@@](O)(CNC(=O)c1ccn3nccc3n1)C(F)(F)F)nc2-c1ccc(F)cc1 [Example 433]
5,> 200 nM,C[C@]1(C(N)=O)COc2c1cc([C@@](O)(CNC(=O)c1cc3cc(F)ccc3s1)C(F)(F)F)nc2-c1ccc(F)cc1 [Example 434]
6,> 200 nM,Cc1c(C(=O)NC[C@](O)(c2cc3c(c(-c4ccc(F)cc4)n2)OC[C@]3(C)C(N)=O)C(F)(F)F)sc2ccccc12 [Example 435]
7,> 200 nM,C[C@]1(C(N)=O)COc2c1cc([C@@](O)(CNC(=O)c1cnc3cnccn13)C(F)(F)F)nc2-c1ccc(F)cc1 [Example 436]
8,> 200 nM,CC(C)c1csc(C(=O)NC[C@](O)(c2cc3c(c(-c4ccc(F)cc4)n2)OC[C@]3(C)C(N)=O)C(F)(F)F)n1 [Example 437]
9,> 200 nM,C[C@]1(C(N)=O)COc2c1cc([C@@](O)(CNC(=O)c1ccc3[nH]ccc3c1F)C(F)(F)F)nc2-c1ccc(F)cc1 [Example 438]
10,> 200 nM,C[C@]1(C(N)=O)COc2c1cc([C@@](O)(CNC(=O)c1cnn3ccncc13)C(F)(F)F)nc2-c1ccc(F)cc1 [Example 439]
11,< 200 nM,COc1cc2ccc(C(=O)NC[C@](O)(c3cc4c(c(-c5ccc(F)cc5)n3)OC[C@]4(C)C(N)=O)C(F)(F)F)cc2cc1OC [Example 440]
12,> 200 nM,COC(=O)C12CC(C(=O)NC[C@](O)(c3cc4c(c(-c5ccc(F)cc5)n3)OC[C@]4(C)C(N)=O)C(F)(F)F)(C1)C2 [Example 442]
13,> 200 nM,C[C@]1(C(N)=O)COc2c1cc([C@@](O)(CNC(=O)c1cn(-c3ccccc3)nc1-c1ccccc1)C(F)(F)F)nc2-c1ccc(F)cc1 [Example 443]
14,< 200 nM,C[C@]1(C(N)=O)COc2c1cc([C@@](O)(CNC(=O)c1cnn(-c3ccccc3)c1)C(F)(F)F)nc2-c1ccc(F)cc1 [Example 444]
15,> 200 nM,Cn1cc(C(=O)NC[C@](O)(c2cc3c(c(-c4ccc(F)cc4)n2)OC[C@]3(C)C(N)=O)C(F)(F)F)c(-c2ccccc2)n1 [Example 445]
16,> 200 nM,C[C@]1(C(N)=O)COc2c1cc([C@@](O)(CNC(=O)c1c[nH]nc1-c1ccccc1)C(F)(F)F)nc2-c1ccc(F)cc1 [Example 446]
17,> 200 nM,COc1cccc(-c2nn(-c3ccccc3)cc2C(=O)NC[C@](O)(c2cc3c(c(-c4ccc(F)cc4)n2)OC[C@]3(C)C(N)=O)C(F)(F)F)c1 [Example 447]
18,> 200 nM,COc1cccc(-c2n[nH]cc2C(=O)NC[C@](O)(c2cc3c(c(-c4ccc(F)cc4)n2)OC[C@]3(C)C(N)=O)C(F)(F)F)c1 [Example 448]
19,> 200 nM,COc1cccc(-n2cc(C(=O)NC[C@](O)(c3cc4c(c(-c5ccc(F)cc5)n3)OC[C@]4(C)C(N)=O)C(F)(F)F)cn2)c1 [Example 449]
20,> 200 nM,COc1ccc(-n2cc(C(=O)NC[C@](O)(c3cc4c(c(-c5ccc(F)cc5)n3)OC[C@]4(C)C(N)=O)C(F)(F)F)cn2)cc1 [Example 450]
21,> 200 nM,C[C@]1(C(N)=O)COc2c1cc([C@@](O)(CNC(=O)c1cnn(-c3ccc(F)cc3)c1)C(F)(F)F)nc2-c1ccc(F)cc1 [Example 451]
22,< 200 nM,Cc1nn(-c2ccccc2)cc1C(=O)NC[C@](O)(c1cc2c(c(-c3ccc(F)cc3)n1)OC[C@]2(C)C(N)=O)C(F)(F)F [Example 452]
23,> 200 nM,Cc1nn(-c2ccccc2)c(C)c1C(=O)NC[C@](O)(c1cc2c(c(-c3ccc(F)cc3)n1)OC[C@]2(C)C(N)=O)C(F)(F)F [Example 453]
24,< 200 nM,C[C@]1(C(N)=O)COc2c1cc([C@@](O)(CNC(=O)c1cnn(-c3ccccc3F)c1)C(F)(F)F)nc2-c1ccc(F)cc1 [Example 454]
25,> 200 nM,C[C@]1(C(N)=O)COc2c1cc([C@@](O)(CNC(=O)c1cnn(-c3ccc(C(F)(F)F)cc3)c1)C(F)(F)F)nc2-c1ccc(F)cc1 [Example 455]
26,> 200 nM,C[C@]1(C(N)=O)COc2c1cc([C@@](O)(CNC(=O)c1cnn(-c3ccccc3)c1C(F)(F)F)C(F)(F)F)nc2-c1ccc(F)cc1 [Example 456]

row,EC50,SMILES
1,> 200 nM,C[C@]1(C(N)=O)COc2c1cc([C@@](O)(CNC(=O)c1cn(-c3ccccc3)nc1C(F)(F)F)C(F)(F)F)nc2-c1ccc(F)cc1 [Example 457]
2,< 200 nM,Cc1c(C(=O)NC[C@](O)(c2cc3c(c(-c4ccc(F)cc4)n2)OC[C@]3(C)C(N)=O)C(F)(F)F)cnn1-c1ccccc1 [Example 458]
3,< 200 nM,C[C@]1(C(N)=O)COc2c1cc([C@@](O)(CNC(=O)c1cnn(C3CC3)c1)C(F)(F)F)nc2-c1ccc(F)cc1 [Example 461]
4,< 200 nM,Cc1nc(C2CC2)sc1C(=O)NC[C@](O)(c1cc2c(c(-c3ccc(F)cc3)n1)OC[C@]2(C)C(N)=O)C(F)(F)F [Example 462]
5,< 200 nM,CC[C@@]1(C(N)=O)COc2c1cc([C@@](O)(CNC(=O)c1cc(OC)c3nn(C4CC4)cc3c1)C(F)(F)F)nc2-c1ccc(F)cc1 [Example 463]
6,< 200 nM,CC[C@]1(C(N)=O)COc2c1cc([C@@](O)(CNC(=O)c1cc(OC)c3nn(C4CC4)cc3c1)C(F)(F)F)nc2-c1ccc(F)cc1 [Example 464]
7,> 200 nM,C[C@]1(C(N)=O)COc2c1cc([C@@](O)(CNC(=O)c1csc(-c3ccccc3)n1)C(F)(F)F)nc2-c1ccc(F)cc1 [Example 482]
8,> 200 nM,Cc1sc(-c2ccccc2)nc1C(=O)NC[C@](O)(c1cc2c(c(-c3ccc(F)cc3)n1)OC[C@]2(C)C(N)=O)C(F)(F)F [Example 483]
9,> 200 nM,C[C@]1(C(N)=O)COc2c1cc([C@@](O)(CNC(=O)c1cnc(-c3ccccc3F)s1)C(F)(F)F)nc2-c1ccc(F)cc1 [Example 484]
10,> 200 nM,Cc1nc(-c2ccccc2F)sc1C(=O)NC[C@](O)(c1cc2c(c(-c3ccc(F)cc3)n1)OC[C@]2(C)C(N)=O)C(F)(F)F [Example 485]
11,< 200 nM,C[C@]1(C(N)=O)COc2c1cc([C@@](O)(CNC(=O)c1cccc3nc(N)sc13)C(F)(F)F)nc2-c1ccc(F)cc1 [Example 490]
12,< 200 nM,C[C@]1(C(N)=O)COc2c1cc([C@@](O)(CNC(=O)c1ccn3nc(C4CC4)cc3c1)C1CC1)nc2-c1ccc(F)c(Cl)c1 [Example 492]
13,< 200 nM,COc1cc(C(=O)NC[C@](O)(c2cc3c(c(-c4ccc(F)cc4Cl)n2)OC[C@]3(C)C(N)=O)C2CC2)cc2cn(C3CC3)nc12 [Example 535]
14,< 200 nM,COc1cc(C(=O)NC[C@](O)(c2cc3c(c(-c4cnc(C#N)c(Cl)c4)n2)OC[C@]3(C)C(N)=O)C(F)(F)F)cc2cc(Cl)c(C)nc12 [Example 584]
15,< 200 nM,COc1cc(C(=O)NC[C@](O)(c2cc3c(c(-c4ccc(F)c(Cl)c4)n2)OC[C@]3(C)C(N)=O)C2CC2)cn2cc(C3CC3)nc12 [Example 634]
16,> 200 nM,COc1cc(C(=O)NC[C@@](O)(c2cc3c(c(-c4ccc(F)c(C)c4)n2)OC[C@]3(C)C(N)=O)C(F)(F)F)cc2cn(C3CC3)nc12 [Example 635]
17,< 200 nM,C[C@]1(C(N)=O)COc2c1cc([C@@](O)(CNC(=O)c1ccnc3cc[nH]c13)C(F)(F)F)nc2-c1ccc2c(c1)OC(F)(F)O2 [Example 701]
18,> 200 nM,Cc1ccn2cc(C(=O)NC[C@](O)(c3cc4c(c(-c5ccc(F)cc5)n3)OC[C@]4(C)C(N)=O)C(F)(F)F)nc2c1 [Example 805]
19,> 200 nM,Cc1cccn2cc(C(=O)NC[C@](O)(c3cc4c(c(-c5ccc(F)cc5)n3)OC[C@]4(C)C(N)=O)C(F)(F)F)nc12 [Example 806]
20,> 200 nM,Cc1cccc2nc(C(=O)NC[C@](O)(c3cc4c(c(-c5ccc(F)cc5)n3)OC[C@]4(C)C(N)=O)C(F)(F)F)cn12 [Example 807]
21,< 200 nM,C[C@]1(C(N)=O)COc2c1cc([C@@](O)(CNC(=O)c1cn3cc(Cl)ccc3n1)C(F)(F)F)nc2-c1ccc(F)cc1 [Example 808]
22,> 200 nM,C[C@]1(C(N)=O)COc2c1cc([C@@](O)(CNC(=O)c1cn3cc(F)ccc3n1)C(F)(F)F)nc2-c1ccc(F)cc1 [Example 809]
23,> 200 nM,C[C@]1(C(N)=O)COc2c1cc([C@@](O)(CNC(=O)c1cn3cc(C(F)(F)F)ccc3n1)C(F)(F)F)nc2-c1ccc(F)cc1 [Example 810]
24,> 200 nM,CC(C)Oc1ccc2nc(C(=O)NC[C@](O)(c3cc4c(c(-c5ccc(F)cc5)n3)OC[C@]4(C)C(N)=O)C(F)(F)F)cn2c1 [Example 812]
25,> 200 nM,C[C@]1(C(N)=O)COc2c1cc([C@@](O)(CNC(=O)c1cn3cc(OC4CC4)ccc3n1)C(F)(F)F)nc2-c1ccc(F)cc1 [Example 813]
26,> 200 nM,C[C@]1(C(N)=O)COc2c1cc([C@@](O)(CNC(=O)c1cn3cc(OC(F)(F)F)ccc3n1)C(F)(F)F)nc2-c1ccc(F)cc1 [Example 814]
